Data as given in ChEMBL document CHEMBL1201862, “PubChem BioAssay data set” (2004).
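A five-concentration, 48-hour dose response in 96-well plates underlies each endpoint, interpolated linearly between surrounding concentrations. Here, GI50 denotes the concentration required for 50% inhibition of growth.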 Calls of active or inactive are those of the source. Cut-off read from the data, not from the text of the source: active = GI50 up to about 1.1 µM and inactive = higher.

Columns and labels:
Assay in all cases: NCI-60 cell line screen, 48 h
[1] = system: UO-31
[2] = system: HOP-62
[3] = system: ACHN
[4] = system: A498
[5] = system: NCI-H522
[6] = system: SW-620
[7] = system: A549
[8] = system: COLO 205
[9] = system: OVCAR-3
[10] = system: LOX IMVI
[11] = system: HCT-15
[12] = system: IGROV-1
[13] = system: OVCAR-5
[14] = system: RPMI-8226
[15] = system: U-251
[16] = system: SF-539
[17] = system: MDA-MB-231
[18] = system: MDA-N

Compound	GI50 [1]	GI50 [2]	GI50 [3]	GI50 [4]	GI50 [5]	GI50 [6]	GI50 [7]	GI50 [8]	GI50 [9]	GI50 [10]	GI50 [11] [µM]	GI50 [12]	GI50 [13]	GI50 [14]	GI50 [15]	GI50 [16]	GI50 [17]	GI50 [18]
CC#COP(=O)(OCC)OCC	> 100 µM (inactive)	> 100 µM (inactive)	> 100 µM (inactive)	39.5 µM (inactive)	> 100 µM (inactive)	> 100 µM (inactive)	> 100 µM (inactive)	> 100 µM (inactive)	> 100 µM (inactive)	> 100 µM (inactive)	> 100	> 100 µM (inactive)	> 100 µM (inactive)	85.1 µM (inactive)	> 100 µM (inactive)	> 100 µM (inactive)	–	–
O=C(CCC(=O)Nc1ccc(Cl)cc1)CC(=O)c1ccc2ccccc2c1	> 100 µM (inactive)	> 100 µM (inactive)	> 100 µM (inactive)	> 100 µM (inactive)	> 100 µM (inactive)	> 100 µM (inactive)	> 100 µM (inactive)	> 100 µM (inactive)	> 100 µM (inactive)	> 100 µM (inactive)	> 100	> 100 µM (inactive)	> 100 µM (inactive)	> 100 µM (inactive)	> 100 µM (inactive)	> 100 µM (inactive)	–	–
O=C1NC2=C(CCCCC/C2=N\O)C12CCCCCC2	> 100 µM (inactive)	> 100 µM (inactive)	> 100 µM (inactive)	> 100 µM (inactive)	> 100 µM (inactive)	> 100 µM (inactive)	> 100 µM (inactive)	> 100 µM (inactive)	> 100 µM (inactive)	> 100 µM (inactive)	> 100	> 100 µM (inactive)	> 100 µM (inactive)	> 100 µM (inactive)	> 100 µM (inactive)	> 100 µM (inactive)	–	–
COC(=O)C(Cc1nc2ccc(Cl)cc2nc1O)/C(=N\N)C(=O)Nc1cc(C)c(Cl)cc1S(=O)(=O)O (stereo unspecified)	> 100 µM (inactive)	> 100 µM (inactive)	> 100 µM (inactive)	70.3 µM (inactive)	90.6 µM (inactive)	> 10 µM (inactive)	> 100 µM (inactive)	> 100 µM (inactive)	> 100 µM (inactive)	> 100 µM (inactive)	> 100	> 100 µM (inactive)	75.7 µM (inactive)	88.3 µM (inactive)	> 100 µM (inactive)	> 100 µM (inactive)	–	–
CCCC(=O)C(CC)/C(CCC(=O)N(Cc1ccccc1)Cc1ccccc1)=N/NC(=O)C[N+](C)(C)C (stereo unspecified)	> 100 µM (inactive)	> 100 µM (inactive)	> 100 µM (inactive)	> 100 µM (inactive)	> 100 µM (inactive)	> 100 µM (inactive)	> 100 µM (inactive)	> 100 µM (inactive)	> 100 µM (inactive)	–	–	> 100 µM (inactive)	> 100 µM (inactive)	–	> 100 µM (inactive)	> 100 µM (inactive)	–	–
Cc1ccccc1Cn1nc2ccccc2cc1=O	> 100 µM (inactive)	> 100 µM (inactive)	> 100 µM (inactive)	> 100 µM (inactive)	–	> 100 µM (inactive)	> 100 µM (inactive)	> 100 µM (inactive)	> 100 µM (inactive)	> 100 µM (inactive)	> 100	> 100 µM (inactive)	> 100 µM (inactive)	> 100 µM (inactive)	> 100 µM (inactive)	> 100 µM (inactive)	–	–
C#CCNC(=O)NCCCC(NC(C)=O)C(=O)NCc1ccccc1 (stereo unspecified)	> 100 µM (inactive)	> 100 µM (inactive)	> 100 µM (inactive)	> 100 µM (inactive)	> 100 µM (inactive)	> 100 µM (inactive)	> 100 µM (inactive)	> 100 µM (inactive)	> 100 µM (inactive)	> 100 µM (inactive)	> 100	> 100 µM (inactive)	> 100 µM (inactive)	> 100 µM (inactive)	> 100 µM (inactive)	> 100 µM (inactive)	–	–
C/C(=N\NC(N)=S)c1ccc(C)cc1C	82.6 µM (inactive)	> 100 µM (inactive)	> 100 µM (inactive)	> 100 µM (inactive)	–	> 100 µM (inactive)	53.5 µM (inactive)	55.8 µM (inactive)	75.7 µM (inactive)	> 100 µM (inactive)	> 100	48.8 µM (inactive)	27 µM (inactive)	> 100 µM (inactive)	> 100 µM (inactive)	> 100 µM (inactive)	–	–
O=C1C/C(Br)=C\c2ccccc2-c2ccccc21	2.4 µM (inactive)	3.05 µM (inactive)	1.91 µM (inactive)	8.51 µM (inactive)	0.429 µM (active)	1.39 µM (inactive)	8.26 µM (inactive)	3.76 µM (inactive)	2.45 µM (inactive)	0.869 µM (active)	1.56	3.1 µM (inactive)	2.69 µM (inactive)	1.52 µM (inactive)	2.51 µM (inactive)	2.16 µM (inactive)	–	–
C/C(=C1/CCCC2(N=NCC2c2ccccc2)C1=O)c1ccccc1 (stereo unspecified)	20.9 µM (inactive)	–	31.8 µM (inactive)	–	14.8 µM (inactive)	69.8 µM (inactive)	20.4 µM (inactive)	16.5 µM (inactive)	17.6 µM (inactive)	32.8 µM (inactive)	35.1	42.4 µM (inactive)	36 µM (inactive)	20 µM (inactive)	23.8 µM (inactive)	41.2 µM (inactive)	–	–
COC(=O)c1nn(-c2ccccc2)c(=O)cc1N=[N+]=[N-]	> 100 µM (inactive)	> 100 µM (inactive)	> 100 µM (inactive)	94 µM (inactive)	> 100 µM (inactive)	> 100 µM (inactive)	> 100 µM (inactive)	99.5 µM (inactive)	> 100 µM (inactive)	> 100 µM (inactive)	> 100	> 100 µM (inactive)	> 100 µM (inactive)	> 100 µM (inactive)	> 100 µM (inactive)	> 100 µM (inactive)	–	–
CCCC(=O)Nc1ccc(O)c2c1C1CCCCCC21 (stereo unspecified)	63.2 µM (inactive)	> 100 µM (inactive)	71.8 µM (inactive)	–	75.5 µM (inactive)	> 100 µM (inactive)	> 100 µM (inactive)	> 100 µM (inactive)	–	> 100 µM (inactive)	74	–	–	63.1 µM (inactive)	> 100 µM (inactive)	–	–	–
CCOC(=O)C(OCC1CC=CCC1)Sc1ccccc1 (stereo unspecified)	> 100 µM (inactive)	> 100 µM (inactive)	> 100 µM (inactive)	> 100 µM (inactive)	> 100 µM (inactive)	> 100 µM (inactive)	> 100 µM (inactive)	> 100 µM (inactive)	> 100 µM (inactive)	> 100 µM (inactive)	> 100	> 100 µM (inactive)	> 100 µM (inactive)	> 100 µM (inactive)	> 100 µM (inactive)	> 100 µM (inactive)	–	–
O=C1C=C(O)C(=Cc2c(O)cc(O)cc2O)C(O)=C1	> 100 µM (inactive)	> 100 µM (inactive)	–	> 100 µM (inactive)	> 100 µM (inactive)	> 100 µM (inactive)	> 100 µM (inactive)	> 100 µM (inactive)	> 100 µM (inactive)	> 100 µM (inactive)	> 100	> 100 µM (inactive)	> 100 µM (inactive)	> 100 µM (inactive)	> 100 µM (inactive)	> 100 µM (inactive)	–	–
Clc1ccc(COC(Cn2ccnc2)c2ccc(Cl)cc2Cl)c(Cl)c1 (stereo unspecified) [MICONAZOLE NITRATE]	2.94 µM (inactive)	13.2 µM (inactive)	12.2 µM (inactive)	–	8.2 µM (inactive)	12.8 µM (inactive)	10.9 µM (inactive)	–	9.86 µM (inactive)	9.18 µM (inactive)	10.2	–	12.9 µM (inactive)	–	11 µM (inactive)	14.6 µM (inactive)	11.9 µM (inactive)	3.89 µM (inactive)
Fc1cccc2c1cc1ccc3cccc4ccc2c1c34	> 100 µM (inactive)	> 100 µM (inactive)	> 100 µM (inactive)	> 100 µM (inactive)	> 100 µM (inactive)	> 100 µM (inactive)	> 100 µM (inactive)	> 100 µM (inactive)	> 100 µM (inactive)	> 100 µM (inactive)	–	> 100 µM (inactive)	> 100 µM (inactive)	–	> 100 µM (inactive)	> 100 µM (inactive)	–	–
COC1[C@H](NC(=O)OC(C)(C)C)C(=O)N1Cc1ccccc1 (stereo partly specified)	> 100 µM (inactive)	> 100 µM (inactive)	> 100 µM (inactive)	9.53 µM (inactive)	–	> 100 µM (inactive)	> 100 µM (inactive)	> 100 µM (inactive)	> 100 µM (inactive)	> 100 µM (inactive)	> 100	> 100 µM (inactive)	> 100 µM (inactive)	> 100 µM (inactive)	> 100 µM (inactive)	> 100 µM (inactive)	–	–
CC(C)NC(C)C(C)c1ccccc1 (stereo unspecified)	> 100 µM (inactive)	> 100 µM (inactive)	> 100 µM (inactive)	> 100 µM (inactive)	> 100 µM (inactive)	> 100 µM (inactive)	> 100 µM (inactive)	> 100 µM (inactive)	> 100 µM (inactive)	> 100 µM (inactive)	–	> 100 µM (inactive)	–	> 100 µM (inactive)	> 100 µM (inactive)	> 100 µM (inactive)	–	–
C#Cc1ccccc1N1C(=O)C=CC1=O	> 100 µM (inactive)	> 100 µM (inactive)	> 100 µM (inactive)	> 100 µM (inactive)	> 100 µM (inactive)	> 100 µM (inactive)	> 100 µM (inactive)	> 100 µM (inactive)	> 100 µM (inactive)	–	–	> 100 µM (inactive)	> 100 µM (inactive)	> 100 µM (inactive)	> 100 µM (inactive)	–	–	–
